A word on the solubility: it is the concentration that dissolves in the medium under given conditions.

The text below walks through data of article PMC8235661, “Photoelectric Dye, NK-5962, as a Potential Drug for Preventing Retinal Neurons from Apoptosis: Pharmacokinetic Studies Based on Review of the Evidence” (Life, 2021).

Like-named read-outs stand apart in the source and are kept apart here.

One data set can be described thus: Cytotoxicity test. Type of data set: cell-based.
The subject of the next data set is bacterial. Kind of data set: Bacterial reverse mutation test.
Data set [1] concerns human chromosomal aberration. Kind of data set: Human chromosomal aberration test. The class given is cell-based.
Data set [2] has as its system apoptotic cells in the retinal outer nuclear layer of RCS rats. Kind of data set: Intravitreous injection of NK-5962 in RCS rats, TUNEL assay of retinal outer nuclear layer. Type of data set: in vivo, rat. Here is the method:
NK-5962 powder was dissolved in distilled deionized water at a concentration of 8.2 μg/mL (16 μM). This original stock solution of NK-5962 (8.2 μg/mL) was diluted with saline (0.9% sodium chloride) to make a series of 10-fold dilutions from 8.2 × 10^−4 to 8.2 μg/mL. Twenty male pink-eyed RCS rats (RCS/Jcl-rdy/rdy, p-, CLEA Japan, Inc., Tokyo, Japan) at the age of 4 weeks were assigned to 5 groups (n = 4) that received NK-5962 at 5 different concentrations. Intravitreous injection was performed twice at the age of 4 and 5 weeks (Figure 4A). This study was approved by the Animal Care and Use Committee at the Okayama University (Identifier OKU-2013441) and based on the Animal Welfare and Management Act in Japan.
RCS rats were anesthetized by intraperitoneal injection of ketamine (87 mg/kg body weight, Daiichi Sankyo, Tokyo, Japan) and xylasine (13 mg/kg, Bayer Japan, Osaka, Japan). Mydriasis was induced by 0.5% tropicamide and 0.5% phenylephrine instillation (Santen Pharmaceutical, Osaka, Japan) and corneal anesthesia was further obtained with 0.4% oxybuprokaine instillation (Santen Pharmaceutical, Osaka, Japan). Under a dissecting microscope, 3 μL of NK-5962 solution and saline (0.9% sodium chloride) was injected into the vitreous of the left eye and the right eye, respectively, with a 30-gauge needle attached to a Hamilton syringe (50 μL 1705 LT SYR; Hamilton Company, Reno, NV, USA). The needle was inserted almost at a perpendicular angle and at 1mm from the corneoscleral limbus to avoid the damage to the lens. Antibiotic (0.5% moxifloxacin, Novartis Pharma Japan, Tokyo, Japan) eye drops were instilled for both eyes. Each rat was housed in a standard rat cage in the 12 h light and dark cycle at the Animal Center of Okayama University. In a separate experiment, 3 rats were placed and maintained in constant darkness after intravitreous injection of NK-5962 at a concentration of 8.2 μg/mL (16 μM).
Apoptotic cells were detected by terminal deoxynucleotidyl transferase-mediated fluorescein-conjugated dUTP nick-end-labeling (TUNEL) assay, according to the manufacturer’s instructions (In Situ Cell Death Detection Kit, Roche Diagnostics, Mannheim, Germany). The images at the constant exposure time were captured by an Olympus FSX100 microscope that was equipped with the fluorescent filter cube U-MWIBA3. Five photographs in each of 5 retinal vertical sections per eye were taken and an entire frame (220 × 165 μm) of each photograph with ×40 NA0.95 objective lens was used for measurements. The number of TUNEL-positive cells in the outer nuclear layer at each retinal site (a, b, c and d, Figure 4B) was counted in each frame of photographs. The number of TUNEL-positive cells per 1,000 μm^2 of the outer nuclear layer was calculated for comparison by two-factor ANOVA. […]

The nature of data set [3]: Repeated-dose systemic toxicity test. The conditions noted are these: in vivo.
A short description of another data set: Skin sensitization test. The conditions noted are these: in vivo.
Data set [4] relates to chick retinal pigment epithelial cells. Details: method as in PMID 18414992. Conditions: 6.6 × 10^−5, 6.6 × 10^−6 and 6.6 × 10^−7 M, 4 h, dark or light 320 lux; cited from earlier work.
Data set [5] relates to apoptotic cells in the retinal outer nuclear layer of RCS rats. More on the design: method as in PMID 28085534. Conditions: cited from earlier work.
A short description of data set [6]: Solubility assay in JP 1st and 2nd fluid. The class given is physicochemical. As to the method: The Japanese Pharmacopeia (JP) 1st fluid (pH 1.2) and JP 2nd fluid (pH 6.8) for dissolution testing were used for solubility measurements. The solution of a test compound was prepared by diluting 10 mM NK-5962 in 2 μL DMSO stock solution with 165 μL of JP 1st or 2nd fluid and then mixed at 37 °C for 4 h by rotation at 1000 rpm. After loading the mixed solution into 96-well MultiScreen Filter Plates (product number MSHVN4510, 0.45 μm hydrophilic PVDF membrane; Millipore, Bedford, MA, USA), filtration was performed by centrifugation. The filtrates were mixed with acetonitrile and analyzed by high-performance liquid chromatography-UV detection (HPLC-UV, 254 nm) or by liquid chromatography and tandem mass spectrometry (LC-MS/MS). Solubility was calculated by comparing the peak area of the filtrate mixture with that of a 100 μM standard solution.

Data set [7] is described as follows: Acute systemic toxicity test. Conditions: in vivo.

Regarding `CCCCN(CCCC)c1ccc(C=Cc2sc3ccccc3[n+]2CC(=O)O)cc1.[Br-]` [NK-5962, 2-[2-[4-(dibutylamino)phenyl]ethenyl]-3-carboxymethylbenzothiazolium bromide], the “toxicity in the cytotoxicity test” value in “Cytotoxicity test” is listed as “not toxic”. Besides, in the data set on bacterial, the “genetic toxicity, bacterial reverse mutation test” value is recorded as “not toxic”. Besides, the “genetic toxicity, human chromosomal aberration test” value in [1] is “not toxic”. Moreover, the “percent ratio of the number of TUNEL-positive cells versus saline” value stood at 61% in data set [2] (1.6 μM NK-5962 intravitreous) and 56% in data set [2] (16 μM NK-5962 intravitreous). In addition, the EC50 is 3 µM in data set [2] (16 μM × 3 μL / (3 + 13) μL, rat vitreous cavity estimated 13 μL, read-out: in vivo EC50 as intravitreous concentration) and ~16 µM in data set [2] (Rattus norvegicus, 3 μL intravitreous injection, read-out: EC50 (50% effective concentration), concentration of injected solution). Besides, the “repeated-dose systemic toxicity test” value in data set [3] is reported as “not toxic”. Besides, in “Skin sensitization test”, the “toxicity in the skin sensitization test” value is “not toxic”. Besides, the percent cytotoxicity value result in data set [4] was “negative in all groups”. For the same molecule, the “number of TUNEL-positive cells in the outer nuclear layer of the four retinal sites (a + b + c + d)” value in [5] (1.6 μM NK-5962 intravitreous, saline 139) is listed as 85; in [5] (16 μM NK-5962 intravitreous, saline 129) it was 72. Also, the “number of TUNEL-positive cells in the outer nuclear layer compared to saline-injected eyes” value in data set [5] (intravitreous 16 μM, constant dark condition, P = 0.0001) was “significantly less”. Further, the “TUNEL-positive cells in the outer nuclear layer compared to the saline-injected eyes” value in data set [5] (intravitreous 3 μL twice, 16 to 16 × 10^−2 μM, 12 h light/dark cycle) is recorded as “significantly less”. Further, the solubility at 4 h in [6] (JP 1st fluid pH 1.2, 37 °C, read-out: Solubility JP1 (pH 1.2)) was found to be 79 µM; in data set [6] (JP 2nd fluid pH 6.8, 37 °C, read-out: Solubility JP2 (pH 6.8)), 0.2 µM. In addition, in [6] (JP 2nd fluid pH 6.8, 37 °C, 4 h), the “Solubility JP2 (pH 6.8)” value is given as “low”. For the same molecule, the “acute systemic toxicity test” value in data set [7] is given as “not toxic”.
